Results as given in US8193208B2 (Purdue Pharma L.P., priority 2005, dated 2012).
“And” between values parts separate entries of the source, which are not always exact repeats. Equal values may be shown once.

Experiments:
[1] = molecular target: N-type calcium channel (NTCC) (Homo sapiens, UniProt Q00975); assay: FLIPR calcium mobilization assay for N-type calcium channel (differentiated IMR32 cells); type: cell-based; parameters: endogenous in cells; host or cells: IMR32 cells (ATCC), differentiated 8 days with dibutyryl cAMP and bromodeoxyuridine; conditions: calcium mobilization in vitro assay; N-type calcium channel block
N-type calcium channel (NTCC), sequence (Q00975 whole entry): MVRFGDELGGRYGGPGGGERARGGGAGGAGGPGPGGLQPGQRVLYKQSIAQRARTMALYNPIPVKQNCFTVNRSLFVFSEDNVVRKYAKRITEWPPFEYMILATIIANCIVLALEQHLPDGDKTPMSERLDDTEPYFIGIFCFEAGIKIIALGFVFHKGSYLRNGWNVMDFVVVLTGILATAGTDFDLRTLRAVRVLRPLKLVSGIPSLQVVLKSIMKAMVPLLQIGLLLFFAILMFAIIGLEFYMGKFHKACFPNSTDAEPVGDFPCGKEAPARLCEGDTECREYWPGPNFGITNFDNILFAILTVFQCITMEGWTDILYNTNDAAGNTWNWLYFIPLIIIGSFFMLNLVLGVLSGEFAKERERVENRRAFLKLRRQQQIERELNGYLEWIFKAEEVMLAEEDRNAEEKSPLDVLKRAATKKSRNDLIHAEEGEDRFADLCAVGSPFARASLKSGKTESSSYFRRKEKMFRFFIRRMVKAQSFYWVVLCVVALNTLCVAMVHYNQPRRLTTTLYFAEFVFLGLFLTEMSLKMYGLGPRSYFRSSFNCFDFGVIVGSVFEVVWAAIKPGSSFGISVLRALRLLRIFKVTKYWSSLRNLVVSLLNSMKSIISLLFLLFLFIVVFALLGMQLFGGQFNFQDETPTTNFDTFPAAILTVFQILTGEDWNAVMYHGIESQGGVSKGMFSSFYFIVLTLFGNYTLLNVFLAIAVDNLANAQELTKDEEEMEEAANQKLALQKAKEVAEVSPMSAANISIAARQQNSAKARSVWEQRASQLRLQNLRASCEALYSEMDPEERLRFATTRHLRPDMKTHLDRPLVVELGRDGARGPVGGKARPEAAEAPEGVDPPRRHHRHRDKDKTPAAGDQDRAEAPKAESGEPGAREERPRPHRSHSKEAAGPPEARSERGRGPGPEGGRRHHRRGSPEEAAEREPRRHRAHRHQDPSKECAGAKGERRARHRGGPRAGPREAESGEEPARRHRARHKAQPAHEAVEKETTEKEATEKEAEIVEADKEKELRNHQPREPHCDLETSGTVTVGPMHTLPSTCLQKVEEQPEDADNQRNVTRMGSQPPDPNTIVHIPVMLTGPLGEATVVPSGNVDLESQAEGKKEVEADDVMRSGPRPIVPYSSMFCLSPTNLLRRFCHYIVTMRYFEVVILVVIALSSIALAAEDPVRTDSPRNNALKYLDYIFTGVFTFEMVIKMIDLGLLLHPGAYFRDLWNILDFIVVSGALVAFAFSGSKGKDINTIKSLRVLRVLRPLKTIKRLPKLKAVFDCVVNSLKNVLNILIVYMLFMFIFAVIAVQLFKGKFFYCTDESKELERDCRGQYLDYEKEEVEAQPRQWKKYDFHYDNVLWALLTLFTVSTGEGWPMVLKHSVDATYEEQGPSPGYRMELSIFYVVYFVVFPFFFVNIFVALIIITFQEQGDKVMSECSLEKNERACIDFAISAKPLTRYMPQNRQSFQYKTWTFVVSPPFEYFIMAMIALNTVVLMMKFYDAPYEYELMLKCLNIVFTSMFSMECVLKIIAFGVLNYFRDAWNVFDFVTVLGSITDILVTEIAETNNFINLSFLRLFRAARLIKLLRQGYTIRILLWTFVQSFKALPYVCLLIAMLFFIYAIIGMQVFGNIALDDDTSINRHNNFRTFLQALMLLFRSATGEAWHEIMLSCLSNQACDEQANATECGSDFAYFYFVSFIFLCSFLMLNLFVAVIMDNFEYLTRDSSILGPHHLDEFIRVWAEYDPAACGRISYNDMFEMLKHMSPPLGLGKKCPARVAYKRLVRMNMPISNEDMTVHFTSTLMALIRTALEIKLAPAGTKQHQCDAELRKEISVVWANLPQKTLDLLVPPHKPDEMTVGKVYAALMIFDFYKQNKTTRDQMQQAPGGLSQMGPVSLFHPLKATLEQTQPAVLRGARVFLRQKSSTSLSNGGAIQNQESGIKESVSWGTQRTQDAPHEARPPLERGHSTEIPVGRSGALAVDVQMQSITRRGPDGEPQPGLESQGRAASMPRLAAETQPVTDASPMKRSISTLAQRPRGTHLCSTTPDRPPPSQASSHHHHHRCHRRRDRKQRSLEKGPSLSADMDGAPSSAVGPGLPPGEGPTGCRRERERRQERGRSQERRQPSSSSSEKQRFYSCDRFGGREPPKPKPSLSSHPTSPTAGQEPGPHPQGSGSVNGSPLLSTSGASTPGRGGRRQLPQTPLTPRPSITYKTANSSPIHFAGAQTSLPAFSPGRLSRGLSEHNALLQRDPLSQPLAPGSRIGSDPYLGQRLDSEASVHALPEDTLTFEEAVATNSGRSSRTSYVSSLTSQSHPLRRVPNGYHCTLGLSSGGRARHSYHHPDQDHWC
N-type calcium channel (NTCC), sequence (P54289 25-956 partner limits assumed): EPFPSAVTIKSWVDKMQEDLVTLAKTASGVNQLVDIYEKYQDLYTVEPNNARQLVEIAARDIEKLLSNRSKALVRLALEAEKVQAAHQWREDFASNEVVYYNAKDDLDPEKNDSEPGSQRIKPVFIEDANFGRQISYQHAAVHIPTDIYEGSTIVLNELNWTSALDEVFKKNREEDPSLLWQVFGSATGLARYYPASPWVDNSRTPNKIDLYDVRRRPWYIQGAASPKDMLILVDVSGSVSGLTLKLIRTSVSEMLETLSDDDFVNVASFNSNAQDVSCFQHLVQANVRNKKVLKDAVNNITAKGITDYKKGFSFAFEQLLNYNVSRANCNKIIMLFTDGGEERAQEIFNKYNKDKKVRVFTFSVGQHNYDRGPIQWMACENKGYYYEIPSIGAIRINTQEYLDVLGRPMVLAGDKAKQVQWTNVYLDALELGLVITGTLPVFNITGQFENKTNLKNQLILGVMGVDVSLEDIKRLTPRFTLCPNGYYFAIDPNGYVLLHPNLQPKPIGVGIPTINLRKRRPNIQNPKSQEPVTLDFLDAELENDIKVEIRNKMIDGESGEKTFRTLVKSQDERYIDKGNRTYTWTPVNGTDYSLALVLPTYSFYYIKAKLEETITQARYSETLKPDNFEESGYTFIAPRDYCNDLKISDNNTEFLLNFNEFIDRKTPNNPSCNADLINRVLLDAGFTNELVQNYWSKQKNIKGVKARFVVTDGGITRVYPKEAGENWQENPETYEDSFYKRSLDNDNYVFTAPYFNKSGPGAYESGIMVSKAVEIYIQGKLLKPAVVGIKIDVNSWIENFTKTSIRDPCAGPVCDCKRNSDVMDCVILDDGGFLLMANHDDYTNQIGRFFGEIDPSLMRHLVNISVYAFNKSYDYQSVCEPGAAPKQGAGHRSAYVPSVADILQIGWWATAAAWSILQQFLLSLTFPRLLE
N-type calcium channel (NTCC), sequence (P54289 957-1103 partner limits assumed): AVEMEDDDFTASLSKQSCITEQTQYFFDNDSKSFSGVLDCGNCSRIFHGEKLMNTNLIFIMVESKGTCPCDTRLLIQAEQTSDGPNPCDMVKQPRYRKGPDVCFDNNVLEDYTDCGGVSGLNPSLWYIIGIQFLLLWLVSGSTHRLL
N-type calcium channel (NTCC), sequence (Q02641 whole entry partner): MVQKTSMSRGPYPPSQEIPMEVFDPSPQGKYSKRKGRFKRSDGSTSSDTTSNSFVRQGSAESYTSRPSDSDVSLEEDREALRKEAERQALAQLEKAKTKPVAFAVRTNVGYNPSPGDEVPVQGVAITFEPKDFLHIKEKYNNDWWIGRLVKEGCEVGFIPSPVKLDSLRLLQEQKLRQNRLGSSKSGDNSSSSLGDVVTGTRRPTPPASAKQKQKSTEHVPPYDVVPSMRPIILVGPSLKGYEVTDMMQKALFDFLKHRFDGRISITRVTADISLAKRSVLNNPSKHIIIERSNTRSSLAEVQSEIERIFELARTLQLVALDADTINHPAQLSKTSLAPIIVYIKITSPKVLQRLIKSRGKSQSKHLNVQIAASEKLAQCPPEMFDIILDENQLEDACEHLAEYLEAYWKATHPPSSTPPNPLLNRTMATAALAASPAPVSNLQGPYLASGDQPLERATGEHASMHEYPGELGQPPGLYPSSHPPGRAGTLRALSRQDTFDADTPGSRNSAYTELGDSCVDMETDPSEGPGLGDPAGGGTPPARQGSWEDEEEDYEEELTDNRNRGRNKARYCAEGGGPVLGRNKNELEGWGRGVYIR
Description: Cell maintenance and differentiation. Unless noted otherwise, cell culture reagents were purchased from Mediatech of Herndon, Md. IMR32 cells (American Type Culture Collection, ATCC, Manassas, Va.) were routinely cultured in growth medium consisting of minimum essential medium containing 10% fetal bovine serum (FBS, Hyclone, Logan, Utah), 100 U/mL penicillin, 100 μg/mL streptomycin, 2 mM L-glutamine, 1 mM sodium pyruvate, and 1×MEM non-essential amino acids. 80-90% confluent flasks of cells were differentiated using the following differentiation medium: Growth medium plus 1 mM dibutyryl cyclic AMP (Sigma, St. Louis, Mo.), and 2.5 μM bromodeoxyuridine (Sigma). Cells were differentiated for 8 days by replacing differentiation medium every 2-3 days.
FLIPR Calcium Mobilization Assay for N-type Calcium Channel. One day prior to performing this assay, differentiated IMR32 cells were treated with 1×
CellStripper, and seeded on poly-D-lysine-coated 96-well clear-bottom black plates (Becton Dickinson, Franklin Lakes, N.J.) at 200,000 cells/well. On the day of the assay, the cell plates were washed with IMR32 buffer (127 mM NaCl, 1 mM KCl, 2 mM MgCl2, 700 μM NaH2PO4, 5 mM CaCl2, 5 mM NaHCO3, 8 mM HEPES, 10 mM glucose, pH 7.4), then pre-stimulated with KCl and loaded as follows: 0.05 mL of IMR32 buffer, 0.05 mL of each compound tested diluted in IMR32 buffer containing 20 μM nitrendipine (Sigma), and 0.1 mL KCl dissolved in IMR32 buffer, plus Fluo-4 were added (3 μM final concentration, Molecular Probes, Eugene, Oreg.). Final test compound concentrations ranged from about 846 pM to about 17 μM, final nitrendipine concentration was 5 μM, and final KCl concentration was 90 mM. After 1 hour, the cells were washed twice with 0.05 mL of each compound tested in nitrendipine-containing IMR32 buffer (no KCl or Fluo-4), and then replaced with 0.1 mL of each compound tested in nitrendipine-containing IMR32 buffer. Plates were then transferred to a Fluorimetric Imaging Plate Reader (FLIPR^96, Molecular Devices, Inc., Sunnyvale, Calif.) for assay. The FLIPR measured basal Fluo-4 fluorescence for 315 seconds (i.e., 5 minutes and 15 seconds), then added 0.1 mL KCl agonist dissolved in IMR32 buffer and measured fluorescence for another 45 seconds. Final test compound concentrations on the cells after FLIPR read ranged from about 846 pM to about 17 μM, final nitrendipine concentration was 5 μM, and final KCl concentration was 90 mM. Data were collected over the entire time course and analyzed using Excel, Graph Pad Prism (version 3.02, Graph Pad, San Diego, Calif.), or an in-house non-linear regression analysis software.

[2] = molecular target: T1, L-type calcium channel (LTCC) (Rattus norvegicus, UniProt P22002); assay: FLIPR calcium mobilization assay for L-type calcium channel (HEK293 cells expressing recombinant rat LTCC subunits, or alternatively differentiated A7r5 cells); type: cell-based; conditions: calcium mobilization in vitro assay; L-type calcium channel block
T1 construct: The 6.5 kb cDNA encoding the L-type calcium channel α1c subunit was cloned by PCR amplification from rat heart cDNA; expressed in transfected cells; host or cells: HEK293 (ATCC), stably transfected
Description: A7r5 (ATCC) cells were maintained and routinely cultured in A7r5 growth medium consisting of Dulbecco's Modified Eagles Medium containing 10% FBS, 100 U/mL penicillin, 100 μg/mL streptomycin, 4 mM L-glutamine, and 0.15% sodium bicarbonate. 80-90% confluent flasks of cells were differentiated using the following differentiation medium: A7r5 Growth Medium plus 1 mM dibutyryl cyclic AMP (Sigma). Cells were differentiated for 8 days by replacing differentiation medium every 2-3 days.
FLIPR Calcium Mobilization Assay for L-type Calcium Channel. One day prior to performing this assay, HEK293 cells stably expressing recombinant rat L-type calcium channel (LTCC) subunits (α1c, α2δ, and β1) are trypsinized, then seeded on poly-D-lysine-coated 96-well clear-bottom black plates (Becton Dickinson, Franklin Lakes, N.J.) at 75,000 cells/well. On the day of the assay, the plates are washed with LTCC wash buffer (127 mM NaCl, 2 mM MgCl2, 700 μM NaH2PO4, 5 mM CaCl2, 5 mM NaHCO3, 8 mM HEPES, 10 mM glucose, pH 7.4), then loaded with 0.1 mL of LTCC wash buffer containing Fluo-4 (3 μM final concentration, Molecular Probes, Eugene, Oreg.). After 1 hour, the cells are washed with 0.1 mL LTCC wash buffer and resuspended in 0.05 mL LTCC assay buffer (same composition as LTCC wash buffer). Plates are then transferred to a FLIPR^96 for assay. The FLIPR measures basal Fluo-4 fluorescence for 15 seconds, then adds 0.05 mL of each compound tested diluted in LTCC assay buffer at final concentrations ranging from about 846 pM to about 17 μM. Fluo-4 fluorescence is then measured for 5 minutes. 0.1 mL KCl agonist dissolved in LTCC assay buffer is then added to the cells to produce a final concentration of 90 mM KCl, and fluorescence is measured for another 45 seconds. Data are collected over the entire time course and analyzed using Excel, Graph Pad Prism, or an in-house regression analysis software.
Alternative FLIPR Calcium Mobilization Assay for L-type Calcium Channel. Alternatively, the following cell line and procedure was used for the FLIPR calcium mobilization assay for L-type calcium channel. One day prior to performing this assay, differentiated A7r5 cells were trypsinized, then seeded on tissue culture treated 96-well clear-bottom black plates (Becton Dickinson, Franklin Lakes, N.J.) at a dilution of 1:1 from a confluent T150 cm^2 flask. On the day of the assay, the plates were washed with A7r5 wash buffer (127 mM NaCl, 2 mM MgCl2, 700 μM NaH2PO4, 5 mM CaCl2, 5 mM NaHCO3, 8 mM HEPES, 10 mM glucose, pH 7.4), then loaded with 0.1 mL of A7r5 wash buffer containing Fluo-4 (3 μM final concentration, Molecular Probes, Eugene, Oreg.). After 1 hour, the cells were washed with 0.1 mL A7r5 wash buffer and resuspended in 0.05 mL A7r5 assay buffer that was composed of A7r5 wash buffer plus 50 μM valinomycin (Sigma). Plates were then transferred to a FLIPR^96 for assay. The FLIPR measured basal Fluo-4 fluorescence for 15 seconds, then added 0.05 mL of each compound tested diluted in A7r5 assay buffer at final concentrations ranging from about 846 pM to about 17 μM. Fluo-4 fluorescence was then measured for 5 minutes. 0.1 mL KCl agonist dissolved in A7r5 assay buffer is then added to the cells to produce a final concentration of 90 mM KCl, and fluorescence was measured for another 45 seconds. Data were collected over the entire time course and analyzed using Excel, Graph Pad Prism, or an in-house regression analysis software.

IC50 [1] | IC50 [2] [µM] | Structure (SMILES)
2.66 µM |  | O=C1OC2(CCN(C(=O)CC(c3ccccc3)c3ccccc3)CC2)c2ccccc21 [1,3-dihydro-1′-(3,3-diphenylpropanoyl)-spiro[isobenzofuran-1,4′-piperidine]-3-one]
6.94 µM and 10 to 20 µM |  | COc1ccc(C(=O)N2CCC3(CC2)OC(=O)c2ccccc23)cc1C(F)(F)F [1,3-dihydro-1′-(4-methoxy-3-trifluoromethylbenzoyl)-spiro[isobenzofuran-1,4′-piperidine]-3-one]
10 to 20 µM |  | COc1ccc(C(=O)N2CCC3(CC2)OC(=O)c2ccccc23)cn1 [1,3-dihydro-1′-(6-methoxypyridin-3-ylcarbonyl)-spiro[isobenzofuran-1,4′-piperidine]-3-one]
10 to 20 µM |  | O=C(CCC(=O)N1CCC2(CC1)OC(=O)c1ccccc12)c1ccc(F)cc1 [1,3-dihydro-1′-[4-(4-fluorophenyl)-4-oxobutanoyl]-spiro[isobenzofuran-1,4′-piperidine]-3-one]
6.47 µM |  | O=C1OC2(CCN(C(=O)c3ccc(OCC(F)(F)F)nc3)CC2)c2ccccc21 [1,3-dihydro-1′-[6-(2,2,2-trifluoroethoxy)pyridin-3-ylcarbonyl]-spiro[isobenzofuran-1,4′-piperidine]-3-one]
4.13 µM |  | COc1ccc(CN(C)C(CC(C)C)C(=O)N2CCC3(CC2)OC(=O)c2ccccc23)cc1 (centres unmarked) [1,3-dihydro-1′-{4-methyl-2-[N-methyl-N-(4-methoxybenzyl)amino]-pentanoyl}-spiro[isobenzofuran-1,4′-piperidine]-3-one]
3.52 µM |  | O=C(CC(c1ccccc1)c1ccccc1)N1CCC2(C=Cc3ncccc32)CC1 [1-(3,3-diphenylpropanoyl)-spiro[piperidine-4,5′-cyclopenta[b]pyridine]]
2.29 µM | 5.74 | COc1ccc(C(=O)N2CCC3(C=Cc4ccccc43)CC2)cc1C(F)(F)F [1-(3-trifluoromethyl-4-methoxybenzoyl)-spiro[piperidine-4,1′-indene]]
5.61 µM |  | O=C(N1CCc2cc(S(=O)(=O)N3CCC4(C=Cc5ncccc54)CC3)ccc2C1)C(F)(F)F [1-(N-trifluoromethylcarbonyl-1,2,3,4-tetrahydroisoquinolin-6-yl-sulfonyl)-spiro[piperidine-4,5′-cyclopenta[b]pyridine]]
10 to 20 µM |  | O=C(c1cc2ccccc2s1)N1CCC2(C=Cc3ncccc32)CC1 [1-(benzo[b]thiophen-2-ylcarbonyl)-spiro[piperidine-4,5′-cyclopenta[b]pyridine]]
0.34 µM | > 20 | O=C1NC2(CCN(CCCC(c3ccc(F)cc3)c3ccc(F)cc3)CC2)c2ccccc21 [2,3-Dihydro-1′-[4,4-bis(4-fluorophenyl)butyl]-spiro[isoindole-1,4′-piperidine]-3-one]
0.69 µM | 0.31 | O=C1OC2(CCN(C(=O)CCC(c3ccc(F)cc3)c3ccc(F)cc3)CC2)c2ccccc21 [Compound 14, 1,3-Dihydro-1′-[4,4-bis(4-fluorophenyl)butanoyl]-spiro[isobenzofuran-1,4′-piperidine]-3-one]
5.59 µM |  | O=C(CC=C(c1ccc(F)cc1)c1ccc(F)cc1)N1CCC2(C=Cc3ccccc32)CC1 [Compound 33, 1-[4,4-bis(4-fluorophenyl)but-3-enoyl]-spiro[piperidine-4,1′-indene]]
10 to 20 µM |  | O=C(CCC(c1ccc(F)cc1)c1ccc(F)cc1)N1CCC2(C=Cc3ccccc32)CC1 [Compound 34, 1-[4,4-bis(4-fluorophenyl)butanoyl]-spiro[piperidine-4,1′-indene]]
5.79 µM |  | O=C1OC2(CCN(C(=O)CC(=O)N(c3ccc(F)cc3)c3ccc(F)cc3)CC2)c2ccccc21 [Compound 75, 1,3-Dihydro-1′-{2-[N,N,-bis(4-fluorophenyl)aminocarbonyl]ethan-1-oyl}-spiro[isobenzofuran-1,4′-piperidine]-3-one]

Structure (SMILES) | IC50 [1] | IC50 [2] [µM]
CC(C)CC(C(=O)N1CCC2(CC1)OC(=O)c1ccccc12)N(C)C(=O)OC(C)(C)C (centres unmarked) [1,3-dihydro-1′-[4-methyl-2-(N-methyl-N-tert-butoxycarbonylamino)pentanoyl]-spiro[isobenzofuran-1,4′-piperidine]-3-one] | 10.5 µM | 
O=C1OC2(CCN(CCC(=O)N(c3ccc(F)cc3)c3ccc(F)cc3)CC2)c2ccccc21 [1,3-dihydro-1′-{2-[N,N-bis(4-fluorophenyl)aminocarbonyl]ethyl}-spiro[isobenzofuran-1,4′-piperidine]-3-one] | 1.64 µM | 
COc1ccc(CN2CCC3(C=Cc4ncccc43)CC2)cc1C(F)(F)F [1-(4-methoxy-3-trifluoromethylbenzyl)-spiro[piperidine-4,5′-cyclopenta[b]pyridine]] | 10 to 20 µM | 
C1=CC2(CCN(CCC=C3c4ccccc4CCc4ccccc43)CC2)c2cccnc21 [1-[2-(10,11-dihydro-5H-dibenzo[a,d]cyclohepten-5-ylmethenyl)ethyl]-spiro[piperidine-4,5′-cyclopenta[b]pyridine]] | 0.55 µM | 3.78
O=C1OC2(CCN(CCCC(c3ccc(F)cc3)c3ccc(F)cc3)CC2)c2ccccc21 [Compound 12, 1,3-Dihydro-1′-[4,4-bis(4-fluorophenyl)butyl]-spiro[isobenzofuran-1,4′-piperidine]-3-one] | 0.46 µM | 3.95
O=C1OC2(CCN(CC(=O)N(c3ccc(F)cc3)c3ccc(F)cc3)CC2)c2ccccc21 [Compound 71, 1,3-Dihydro-1′-[N,N,-bis(4-fluorophenyl)aminocarbonylmethyl]-spiro[isobenzofuran-1,4′-piperidine]-3-one] | 4.89 µM | 
